Experiments:
[1] = molecular target: IL-17A(FLAG-Tagged): IL-17RA(His-Tagged) (Homo sapiens, UniProt Q16552, K93Q); assay: IL-17A(FLAG-Tagged): IL-17RA(His-Tagged) Binding Disruption Eu-HTRF Assay; details: disruption of IL-17A/IL-17RA binding; simple average if tested more than once
Procedure, shortened: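 Compound (22-point 2-fold series) was preincubated 1 h at rt with FLAG-IL-17A, then His-IL-17RA, Eu-anti-FLAG and D2-anti-His were added in PBS/0.01% Triton X-100 with 200 mM KF for 2 h at rt. The ratio of 665 and 620 nm intensities versus concentration was fitted to one-site competition for IC50.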

[2] = test system: IL-17A-induced G-CSF production in human normal keratinocytes (NHK); assay: NHK Assay: IL-17A-induced G-CSF production in human normal keratinocytes; format: cell-based; details: Homo sapiens, Keratinocyte, 24 h, IL-17A 5 ng/mL, 5% FBS, simple average if tested more than once
Procedure, shortened: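 Adult normal human keratinocytes treated 24 h at 37 °C with IL-17A (5 ng/mL final) pre-incubated 1 h at rt with titrated compound; 0.2% DMSO, 5% FBS. G-CSF in supernatant measured by HTRF against a standard curve to give IC50; viability checked by CellTiter-Glo.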

[3] = seven of nine patients with moderate-to-severe HS, open-label pilot-trial (Prussick et al. 2019); cited from earlier work

UniProt Q16552, sequence (Q16552 with tags, fused parts or gaps K93Q): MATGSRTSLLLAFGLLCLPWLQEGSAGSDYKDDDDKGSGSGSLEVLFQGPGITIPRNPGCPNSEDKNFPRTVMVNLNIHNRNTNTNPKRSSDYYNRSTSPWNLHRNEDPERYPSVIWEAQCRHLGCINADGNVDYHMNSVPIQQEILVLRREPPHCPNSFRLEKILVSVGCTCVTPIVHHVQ

Compound	IC50 [1]	IC50 [2]	patients achieving HiSCR [3]
O=C(CCC(F)(F)F)N[C@@H](c1ccn2cc([C@@H](NC(=O)c3ccnc(CC(F)(F)F)c3)C3CCC(F)(F)CC3)nc2n1)C1CC1 [Example 48, N—((S)-(7-((R)-Cyclopropyl(4,4,4-trifluorobutanamido)methyl)imidazo[1,2-a]pyrimidin-2-yl)(4,4-difluorocyclohexyl)methyl)-2-(2,2,2-trifluoroethyl)isonicotinamide]	160 nM	170 nM	
Cc1nonc1C(=O)N[C@H](c1cn2ccc([C@H](NC(=O)CC34CC(F)(C3)C4)C3CC3)nc2n1)C1CCC(F)(F)CC1 [Example 59, N—((S)-(7-((R)-Cyclopropyl(2-(3-fluorobicyclo[1.1.1]pentan-1-yl)acetamido)methyl)imidazo[1,2-a]pyrimidin-2-yl)(4,4-difluorocyclohexyl)methyl)-4-methyl-1,2,5-oxadiazole-3-carboxamide]	390 nM	990 nM	
Cc1nonc1C(=O)N[C@H](c1cn2ccc([C@H](NC(=O)C[C@H](C)C(F)F)C3CC3)nc2n1)C1CCC(F)(F)CC1 [Example 60, N—((S)-(7-((R)-Cyclopropyl((S)-4,4-difluoro-3-methylbutanamido)methyl)imidazo[1,2-a]pyrimidin-2-yl)(4,4-difluorocyclohexyl)methyl)-4-methyl-1,2,5-oxadiazole-3-carboxamide]	380 nM	760 nM	
Cc1nonc1C(=O)N[C@H](c1cn2ccc([C@H](NC(=O)C[C@H]3C[C@H](F)C3)C3CC3)nc2n1)C1CCC(F)(F)CC1 [Example 61, N—((S)-(7-((R)-Cyclopropyl(2-((1r,3S)-3-fluorocyclobutyl)acetamido)methyl)imidazo[1,2-a]pyrimidin-2-yl)(4,4-difluorocyclohexyl)methyl)-4-methyl-1,2,5-oxadiazole-3-carboxamide]	460 nM	2300 nM	
O=C(CC1CC(F)(F)C1)N[C@@H](c1ccn2cc([C@@H](NC(=O)c3nonc3C3CC3)C3CCC(F)(F)CC3)nc2n1)C1CC1 [Example 62, 4-Cyclopropyl-N—((S)-(7-((R)-cyclopropyl(2-(3,3-difluorocyclobutyl)acetamido)methyl)imidazo[1,2-a]pyrimidin-2-yl)(4,4-difluorocyclohexyl)methyl)-1,2,5-oxadiazole-3-carboxamide]	91 nM	120 nM	
O=C(CC1CC(F)(F)C1)N[C@@H](c1ccn2cc([C@@H](NC(=O)c3nocc3CC(F)(F)F)C3CCC(F)(F)CC3)nc2n1)C1CC1 [Example 63, N—((S)-(7-((R)-Cyclopropyl(2-(3,3-difluorocyclobutyl)acetamido)methyl)imidazo[1,2-a]pyrimidin-2-yl)(4,4-difluorocyclohexyl)methyl)-4-(2,2,2-trifluoroethyl)isoxazole-3-carboxamide]	220 nM	640 nM	
secukinumab			78%
